From patent US20040122062A1, “Use of growth hormone secretagogues for treatment of physical performance decline” (Pfizer Inc, priority 2000, published 2004)
Where a SMILES comes first, the peptide text is derived from it. [ ]: non-standard residue; d: D form. d2Nal = N[C@H](Cc1ccc2ccccc2c1)C(=O)O; Aib = CC(C)(N)C(=O)O

Assays:
[1] = 6-Minute Walk Test in a clinical study; assay type: in vivo, human; details: all dose groups, week 6 and week 12
Procedure: One physical performance endpoint in a clinical study was to determine whether the test compound, 2-amino-N-[2-(3a-(R)-benzyl-2-methyl-3-oxo-2,3,3a,4,6,7-hexahydro-pyrazolo[4,3-c]pyridin-5-yl)-1-(R)-benzyloxymethyl-2-oxo-ethyl]-isobutyramide, L-tartrate, increased the six-minute walk distance in subjects with mild-to-moderate congestive heart failure. There were four dose groups, 3 mg po tid; 6 mg po tid; 10 mg po q am, and placebo.
The six-minute walk study was performed at baseline, week 6, and week 12. The purpose of this test was to determine how many feet an individual can walk within six-minutes.

[2] = canines during remobilization; cited from earlier work
[3] = obese young males; cited from earlier work
[4] = adult female rats; cited from earlier work

## CN1N=C2CCN(C(=O)[C@@H](COCc3ccccc3)NC(=O)C(C)(C)N)C[C@@]2(Cc2ccccc2)C1=O.O=C(O)C(O)C(O)C(=O)O [2-amino-N-[2-(3a-(R)-benzyl-2-methyl-3-oxo-2,3,3a,4,6,7-hexahydro-pyrazolo[4,3-c]pyridin-5-yl)-1-(R)-benzyloxymethyl-2-oxo-ethyl]-isobutyramide, L-tartrate]
[1]
  six-minute walk distance, change from baseline: increased in all dose groups at both 6 and 12 weeks

## CC(C)(N)C(=O)N[C@H](COCc1ccccc1)C(=O)N1CCC2(CC1)CN(S(C)(=O)=O)c1ccccc12 [MK-0677]
[2]
  levels of serum insulin-like growth factor-I: elevated
  size and strength of the quadriceps muscle: increased
[3]
  markers of bone formation and bone resorption: increases

## CC(C)(N)C(=O)N[C@@H](Cc1c[nH]cn1)C(=O)N[C@H](Cc1ccc2ccccc2c1)C(=O)N[C@H](Cc1ccccc1)C(=O)N[C@@H](CCCCN)C(N)=O [ipamorelin] (H-[Aib]H[d2Nal][dF]K-NH2)
[4]
  bone mass: have the capacity to increase bone mass

## GHRP-6
[4]
  bone mass: have the capacity to increase bone mass
